Key:
[1] = target: T1, EGFR (aa668-1210, Invitrogen) (Homo sapiens, UniProt P00533); experiment: Biochemical EGFR inhibition assay (TR-FRET), wild-type EGFR; details: ATP at Km, 15 min pre-incubation, 60 min reaction; read-out: WT (Km ATP) IC50
T1 construct: EGFR (aa668-1210, Invitrogen); purchased Invitrogen
Outline: (§1)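 Recombinant kinase pre-incubated with compound 15 min at room temperature in 50 mM HEPES pH7.5, 10 mM MgCl2, 2 mM DTT, 1 mM EGTA, 0.1% BSA, 0.01% Tween-20; reaction started with ATP at Km plus biotin-poly GT, run 60 min at RT. HTRF read (665/620 nm); IC50 from four-parameter logistic fit.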

[2] = target: T2, EGFR(L858R_T790M_C797S) (aa695-end, Invitrogen) (Homo sapiens, UniProt P00533, C797S/L858R/T790M); experiment: Biochemical EGFR inhibition assay (TR-FRET), L858R/T790M/C797S mutant; details: ATP at Km, 15 min pre-incubation, 60 min reaction; read-out: LR_TM_CS (Km ATP) IC50
T2 construct: purchased Invitrogen
T2 sequence (P00533 695-1210 T790M/C797S/L858R): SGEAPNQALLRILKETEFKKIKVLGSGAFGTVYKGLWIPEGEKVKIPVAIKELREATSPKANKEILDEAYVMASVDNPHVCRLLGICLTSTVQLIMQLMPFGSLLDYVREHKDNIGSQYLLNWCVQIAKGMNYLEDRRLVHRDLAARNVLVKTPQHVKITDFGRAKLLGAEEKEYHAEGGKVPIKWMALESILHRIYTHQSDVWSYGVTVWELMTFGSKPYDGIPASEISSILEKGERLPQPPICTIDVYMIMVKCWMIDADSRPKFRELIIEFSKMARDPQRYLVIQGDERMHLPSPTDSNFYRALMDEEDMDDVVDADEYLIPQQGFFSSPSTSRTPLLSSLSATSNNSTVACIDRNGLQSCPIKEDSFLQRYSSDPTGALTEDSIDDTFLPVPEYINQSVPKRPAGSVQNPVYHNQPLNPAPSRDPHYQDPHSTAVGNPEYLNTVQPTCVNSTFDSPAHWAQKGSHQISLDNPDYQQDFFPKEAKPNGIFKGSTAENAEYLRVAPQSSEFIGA
Outline: as §1

[3] = target: EGFR(Dell9_T790M_C797S) (aa 669-1210, in house) (Homo sapiens, UniProt P00533, T790M/C797S, form not given); experiment: Biochemical EGFR inhibition assay (TR-FRET), Del19/T790M/C797S mutant; details: ATP at Km, 15 min pre-incubation, 60 min reaction; read-out: Del_TM_CS (Km ATP) IC50
Chain of EGFR(Dell9_T790M_C797S) (aa 669-1210, in house) (P00533 with tags, fused parts or gaps DEL746-750/T790M/C797S, form open): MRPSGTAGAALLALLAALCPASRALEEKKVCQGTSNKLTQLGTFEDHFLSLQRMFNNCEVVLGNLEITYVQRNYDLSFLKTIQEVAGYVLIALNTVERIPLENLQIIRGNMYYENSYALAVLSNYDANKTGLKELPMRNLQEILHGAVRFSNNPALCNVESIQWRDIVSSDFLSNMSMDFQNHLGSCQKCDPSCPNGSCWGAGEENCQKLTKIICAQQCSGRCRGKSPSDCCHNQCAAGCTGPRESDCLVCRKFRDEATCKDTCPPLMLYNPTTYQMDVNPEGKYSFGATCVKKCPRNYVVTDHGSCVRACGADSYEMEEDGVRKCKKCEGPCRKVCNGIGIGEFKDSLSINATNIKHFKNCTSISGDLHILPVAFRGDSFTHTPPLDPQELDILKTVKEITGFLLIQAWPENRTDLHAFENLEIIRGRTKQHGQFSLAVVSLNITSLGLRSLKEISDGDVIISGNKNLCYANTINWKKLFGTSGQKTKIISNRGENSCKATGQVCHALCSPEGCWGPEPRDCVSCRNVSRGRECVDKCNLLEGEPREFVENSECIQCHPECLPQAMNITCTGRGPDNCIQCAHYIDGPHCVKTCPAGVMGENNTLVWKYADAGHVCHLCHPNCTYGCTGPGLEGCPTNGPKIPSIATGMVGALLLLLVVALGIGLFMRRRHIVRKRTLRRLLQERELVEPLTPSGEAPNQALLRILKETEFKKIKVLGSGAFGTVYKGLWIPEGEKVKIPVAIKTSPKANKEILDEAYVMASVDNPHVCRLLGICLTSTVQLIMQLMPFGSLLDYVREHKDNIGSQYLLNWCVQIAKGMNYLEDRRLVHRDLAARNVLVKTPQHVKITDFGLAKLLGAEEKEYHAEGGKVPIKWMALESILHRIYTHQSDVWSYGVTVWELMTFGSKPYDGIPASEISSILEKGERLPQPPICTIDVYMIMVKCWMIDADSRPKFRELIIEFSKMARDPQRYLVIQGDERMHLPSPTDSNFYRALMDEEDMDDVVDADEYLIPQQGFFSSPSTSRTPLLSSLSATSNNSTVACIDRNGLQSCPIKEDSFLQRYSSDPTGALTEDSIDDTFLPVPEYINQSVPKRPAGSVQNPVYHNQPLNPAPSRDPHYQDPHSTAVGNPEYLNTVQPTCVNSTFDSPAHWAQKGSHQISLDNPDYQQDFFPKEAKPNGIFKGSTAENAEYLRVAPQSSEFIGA
Outline: as §1

BaF3-WT cells = BaF3-WT cells (Homo sapiens, UniProt P00533); experiment: Cell antiproliferation assay (CellTiter-Glo), BaF3-WT; type: cell-based; details: 48 h treatment, read-out: BaF3-WT IC50
Chain of BaF3-WT cells (P00533 whole entry, change not shown): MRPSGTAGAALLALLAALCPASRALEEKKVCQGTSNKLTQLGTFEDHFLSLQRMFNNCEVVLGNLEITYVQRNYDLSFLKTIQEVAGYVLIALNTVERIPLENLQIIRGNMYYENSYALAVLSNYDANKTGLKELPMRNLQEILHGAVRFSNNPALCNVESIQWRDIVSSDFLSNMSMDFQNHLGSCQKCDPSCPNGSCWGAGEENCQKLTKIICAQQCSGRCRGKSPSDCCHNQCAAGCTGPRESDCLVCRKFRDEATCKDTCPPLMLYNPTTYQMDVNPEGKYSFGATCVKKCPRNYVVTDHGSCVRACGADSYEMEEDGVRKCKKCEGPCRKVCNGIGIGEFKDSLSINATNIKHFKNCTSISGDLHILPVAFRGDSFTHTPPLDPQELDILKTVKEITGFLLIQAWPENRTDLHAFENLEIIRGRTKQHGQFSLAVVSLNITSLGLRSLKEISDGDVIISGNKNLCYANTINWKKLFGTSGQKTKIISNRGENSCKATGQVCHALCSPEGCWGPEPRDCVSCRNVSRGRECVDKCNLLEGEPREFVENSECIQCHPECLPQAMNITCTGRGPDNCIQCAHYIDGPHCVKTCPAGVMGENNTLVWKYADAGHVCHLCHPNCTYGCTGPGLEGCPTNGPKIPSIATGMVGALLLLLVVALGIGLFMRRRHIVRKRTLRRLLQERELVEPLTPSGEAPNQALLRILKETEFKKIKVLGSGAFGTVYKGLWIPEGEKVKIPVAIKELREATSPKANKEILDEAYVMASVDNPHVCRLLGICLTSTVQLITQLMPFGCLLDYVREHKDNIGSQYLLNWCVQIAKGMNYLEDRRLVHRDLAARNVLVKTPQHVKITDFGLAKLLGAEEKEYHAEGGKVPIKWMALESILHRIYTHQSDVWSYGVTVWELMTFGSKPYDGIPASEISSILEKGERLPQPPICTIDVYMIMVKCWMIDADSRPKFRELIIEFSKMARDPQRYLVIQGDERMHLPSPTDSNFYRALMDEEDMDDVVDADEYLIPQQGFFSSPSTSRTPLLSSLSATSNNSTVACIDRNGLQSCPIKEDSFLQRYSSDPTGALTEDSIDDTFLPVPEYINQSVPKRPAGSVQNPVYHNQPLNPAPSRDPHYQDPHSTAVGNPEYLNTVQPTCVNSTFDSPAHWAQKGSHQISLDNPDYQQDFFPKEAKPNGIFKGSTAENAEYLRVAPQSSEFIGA
Outline: (§2)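 Cells exposed 48 h to 8 doses from 5-fold serial dilution (500× DMSO stocks from 5 mM), final 0.2% DMSO. Viability by CellTiter-Glo luminescence; IC50 from four-parameter fit of percent inhibition versus concentration.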

BaF3-LR_TM_CS cells = BaF3-LR_TM_CS cells (Homo sapiens, UniProt P00533, T790M/C797S/L858R, cells depend on it); experiment: Cell antiproliferation assay (CellTiter-Glo), BaF3-LR_TM_CS; type: cell-based; details: 48 h treatment, read-out: BaF3-LR_TM_CS IC50
Outline: as §2

BaF3-Del_TM_CS cells = BaF3-Del_TM_CS cells (Homo sapiens, UniProt P00533, T790M/C797S, cells depend on it, form not given); experiment: Cell antiproliferation assay (CellTiter-Glo), BaF3-Del_TM_CS; type: cell-based; details: 48 h treatment, read-out: BaF3-Del_TM_CS IC50
Chain of BaF3-Del_TM_CS cells (P00533 with tags, fused parts or gaps DEL746-750/T790M/C797S, form open): as the sequence (P00533 with tags, fused parts or gaps DEL746-750/T790M/C797S, form open) above
Outline: as §2

T1 sequence (P00533 668-1210): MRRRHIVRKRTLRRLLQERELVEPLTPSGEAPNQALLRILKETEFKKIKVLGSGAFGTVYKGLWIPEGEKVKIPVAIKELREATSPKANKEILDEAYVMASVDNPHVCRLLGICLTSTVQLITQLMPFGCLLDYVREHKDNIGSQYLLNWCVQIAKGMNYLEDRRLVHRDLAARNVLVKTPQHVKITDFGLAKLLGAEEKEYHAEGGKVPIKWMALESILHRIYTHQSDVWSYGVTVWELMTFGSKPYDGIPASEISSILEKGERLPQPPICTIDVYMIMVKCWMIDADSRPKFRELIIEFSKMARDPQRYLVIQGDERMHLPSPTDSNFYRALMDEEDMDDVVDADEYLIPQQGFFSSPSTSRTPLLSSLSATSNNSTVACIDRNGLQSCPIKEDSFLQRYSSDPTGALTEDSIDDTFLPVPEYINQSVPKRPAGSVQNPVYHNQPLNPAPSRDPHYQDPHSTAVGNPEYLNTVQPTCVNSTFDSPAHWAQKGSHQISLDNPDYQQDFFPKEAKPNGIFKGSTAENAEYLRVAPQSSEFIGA

Row | IC50 [1] [nM] | IC50 [2] [nM] | IC50 [3] [nM] | GI50 (BaF3-WT cells) [nM] | GI50 (BaF3-LR_TM_CS cells) [nM] | GI50 (BaF3-Del_TM_CS cells) [nM] | Compound
1 | 0.36 | 0.28 | 0.35 | 500 | 11.4 | 4.54 | COc1cc(N2CCC(N3CCN(C)CC3)CC2)c(C)cc1Nc1ncc(Cl)c(Nc2cccc3c2N(S(C)(=O)=O)CC3)n1 [Example 39, 5-chloro-N^2-(2-methoxy-5-methyl-4-(4-(4-methylpiperazin-1-yl)piperidin-1-yl)phenyl)-N^4-(1-(methylsulfonyl)indolin-7-yl)pyrimidine-2,4-diamine]
2 | 14 | 21 | 121 | 1860 | 730 | 630 | COc1cc(N2CCC(N3CCN(C)CC3)CC2)ccc1Nc1ncc(Cl)c(Nc2cccc3c2N(S(=O)(=O)CCc2ccccc2)CC3)n1 [Example 8, 5-chloro-N^2-(2-methoxy-4-(4-(4-methylpiperazin-1-yl)piperidin-1-yl)phenyl)-N^4-(1-(phenethylsulfonyl)indolin-7-yl)pyrimidine-2,4-diamine]
3 | 0.88 | 1.9 | 0.54 | 570 | 246 | 62.8 | COc1cc(N2CCC(N3CCN(C)CC3)CC2)ccc1Nc1ncc(F)c(Nc2cccc3c2N(S(C)(=O)=O)CC3)n1 [Example 32, 5-fluoro-N^2-(2-methoxy-4-(4-(4-methylpiperazin-1-yl)piperidin-1-yl)phenyl)-N^4-(1-(methylsulfonyl)indolin-7-yl)pyrimidine-2,4-diamine]
4 | 286 | 38 | 87 | 1980 | 1120 | 802 | CNC(=O)N1CCc2cccc(Nc3nc(Nc4ccc(N5CCC(N6CCN(C)CC6)CC5)cc4OC)ncc3Cl)c21 [Example 16, 7-((5-chloro-2-((2-methoxy-4-(4-(4-methylpiperazin-1-yl)piperidin-1-yl)phenyl)amino)pyrimidin-4-yl)amino)-N-methylindoline-1-carboxamide]
5 | 187 | 13 | 186 | 1640 | 428 | 455 | COc1cc(N2CCC(N3CCN(C)CC3)CC2)ccc1Nc1ncc(Cl)c(Nc2cccc3c2N(S(=O)(=O)C(C)(C)C)CC3)n1 [Example 9, N^4-(1-(tert-butylsulfonyl)indolin-7-yl)-5-chloro-N^2-(2-methoxy-4-(4-(4-methylpiperazin-1-yl)piperidin-1-yl)phenyl)pyrimidine-2,4-diamine]
6 | 0.23 | 0.14 | 0.14 | 604 | 222 | 79.9 | COc1cc(N2CCC(N3CCN(C)CC3)CC2)ccc1Nc1ncc(C)c(Nc2cccc3c2N(S(C)(=O)=O)CC3)n1 [Example 35, N^2-(2-methoxy-4-(4-(4-methylpiperazin-1-yl)piperidin-1-yl)phenyl)-5-methyl-N^4-(1-(methylsulfonyl)indolin-7-yl)pyrimidine-2,4-diamine]

Second part, the compound before the results:

Row | Compound | IC50 [1] [nM] | IC50 [2] [nM] | IC50 [3] [nM] | GI50 (BaF3-WT cells) [nM] | GI50 (BaF3-LR_TM_CS cells) [nM] | GI50 (BaF3-Del_TM_CS cells) [nM]
7 | CN(C)C1CCN(c2ccc(Nc3ncc(Br)c(Nc4cccc5c4N(S(C)(=O)=O)CC5)n3)c3c2OCCO3)CC1 [Example 54, 5-bromo-N^2-(8-(4-(dimethylamino)piperidin-1-yl)-2,3-dihydrobenzo[b][1,4]dioxin-5-yl)-N^4-(1-(methylsulfonyl)indolin-7-yl)pyrimidine-2,4-diamine] | 4.8 | 0.25 | 0.16 | 372 | 42.4 | 18.6
8 | COc1cc(N2CCC(N3CCN(C)CC3)CC2)ccc1Nc1nc(Nc2cccc3c2N(S(C)(=O)=O)CC3)c2[nH]ccc2n1 [Example 71, N^2-(2-methoxy-4-(4-(4-methylpiperazin-1-yl)piperidin-1-yl)phenyl)-N^4-(1-(methylsulfonyl)indolin-7-yl)-5H-pyrrolo[3,2-d]pyrimidine-2,4-diamine] | 623 | 143 | 133 | 2210 | 1470 | 920
9 | CCOc1cc(N2CCC(N3CCN(C)CC3)CC2)c(C)cc1Nc1nc(Nc2cccc3c2N(S(C)(=O)=O)CC3)c2cc[nH]c2n1 [Example 93, N^2-(2-ethoxy-5-methyl-4-(4-(4-methylpiperazin-1-yl)piperidin-1-yl)phenyl)-N^4-(1-(methylsulfonyl)indolin-7-yl)-7H-pyrrolo[2,3-d]pyrimidine-2,4-diamine] | 110 | 1.5 | 2.6 | 1520 | 218 | 54.1
10 | COc1cc(N2CCC(N3CCN(C)CC3)CC2)c(F)cc1Nc1nc(Nc2cccc3c2N(S(C)(=O)=O)CC3)c2cc[nH]c2n1 [Example 98, N^2-(5-fluoro-2-methoxy-4-(4-(4-methylpiperazin-1-yl)piperidin-1-yl)phenyl)-N4-(1-(methylsulfonyl)indolin-7-yl)-7H-pyrrolo[2,3-d]pyrimidine-2,4-diamine] | 22 | 0.56 | 0.96 | 1460 | 76.5 | 24.7
11 | COc1cc(N2C[C@H]3CN(C)C[C@H]3C2)c(C)cc1Nc1nc(Nc2cccc3c2N(S(C)(=O)=O)CC3)c2cc[nH]c2n1 [Example 102, N^2-(2-methoxy-5-methyl-4-((3aR,6aS)-5-methylhexahydropyrrolo[3,4-c]pyrrol-2(1H)-yl)phenyl)-N^4-(1-(methylsulfonyl)indolin-7-yl)-7H-pyrrolo[2,3-d]pyrimidine-2,4-diamine] | 66 | 1.1 | 2 | 1710 | 314 | 30.4
12 | CN1CCN(c2ccc(Nc3nc(Nc4cccc5c4N(S(C)(=O)=O)CC5)c4cc[nH]c4n3)cc2F)CC1 [Example 84, N^2-(3-fluoro-4-(4-methylpiperazin-1-yl)phenyl)-N^4-(1-(methylsulfonyl)indolin-7-yl)-7H-pyrrolo[2,3-d]pyrimidine-2,4-diamine] | 150 | 1.5 | 1.6 | 335 | 78 | 10.7
13 | COc1cc(N2CCC(N3CCN(C)CC3)CC2)ccc1Nc1nc(Nc2cccc3c2N(S(C)(=O)=O)CC3)c2sccc2n1 [Example 75, N^2-(2-methoxy-4-(4-(4-methylpiperazin-1-yl)piperidin-1-yl)phenyl)-N^4-(1-(methylsulfonyl)indolin-7-yl)thieno[3,2-d]pyrimidine-2,4-diamine] | 148 | 8.6 | 8.8 | 1200 | 459 | 349
14 | COc1cc(N2CCC(N3CCN(C)CC3)CC2)ccc1Nc1nc(Nc2cccc3c2N(S(C)(=O)=O)CC3)c2nc[nH]c2n1 [Example 72, N^2-(2-methoxy-4-(4-(4-methylpiperazin-1-yl)piperidin-1-yl)phenyl)-N^6-(1-(methylsulfonyl)indolin-7-yl)-9H-purine-2,6-diamine] | 3.1 | 1.4 | 1.3 | 2600 | 2200 | 246
